Experimental data from patent US5464616A, “6β-substituted penicillanic acids as beta-lactamase inhibitors” (Synphar Laboratories, Ind., priority 1994, dated 1995).

Experiments:
E. aerogenes S95 = assay: MIC of cephalothin alone and in combination with inhibitor, E. aerogenes S95 (microbroth dilution); format: cell-based; settings: Klebsiella aerogenes, cephalothin alone, MHB, 5 × 10^5 cfu/ml, 16 h/35° C.
Method: (§1) MIC values of cephalothin in combination with
(§2) β-lactamase inhibitors Ia and Ic.
(§3) Microbroth Dilution Method, MHB; Inoculum, 5 × 10^5 cfu/ml;
(§4) Incubation, 16 h/35° C.;
(§5) *Concentration of inhibitor = 5 mg/ml (fixed).

C. freundii S40 = assay: MIC of cephalothin alone and in combination with inhibitor, C. freundii S40 (microbroth dilution); format: cell-based; settings: Citrobacter freundii, cephalothin alone, MHB, 5 × 10^5 cfu/ml, 16 h/35° C.
Method: as §1, §2, §3, §4, §5

[1] = target: T1, cephalosporinase, which was isolated from Enterobacter cloacae (Enterobacter cloacae, UniProt P05364); assay: inhibition of representative cephalosporinase isolated from Enterobacter cloacae; format: biochemical; settings: read-out: IC50 against representative cephalosporinase
T1 construct: which was isolated from Enterobacter cloacae; endogenous in cells; host or cells: Enterobacter cloacae
T1 sequence (P05364 21-381): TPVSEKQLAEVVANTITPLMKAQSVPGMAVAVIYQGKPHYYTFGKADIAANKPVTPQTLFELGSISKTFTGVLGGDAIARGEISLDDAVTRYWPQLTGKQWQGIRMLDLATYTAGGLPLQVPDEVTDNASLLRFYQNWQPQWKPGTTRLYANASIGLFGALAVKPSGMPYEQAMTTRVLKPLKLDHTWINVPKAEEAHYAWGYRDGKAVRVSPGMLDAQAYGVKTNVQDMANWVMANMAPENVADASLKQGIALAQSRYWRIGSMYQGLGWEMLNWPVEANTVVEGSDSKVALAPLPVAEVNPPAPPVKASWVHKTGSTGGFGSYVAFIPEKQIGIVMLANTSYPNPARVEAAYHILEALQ
Source text: […]. Because of such differences in IC50 value against different types of β-lactamases, these inhibitors are regarded as selective cephalosporinase-inhibitors at the low concentration.

Gram-negative bacteria = assay: whole cell bacteria: antibacterial activity of the inhibitors alone and synergy with cephalothin; format: cell-based; settings: for synergistic activity against Gram-negative bacteria: in combination with cephalothin, whole cell bacteria; for antibacterial activity of the inhibitors themselves: inhibitor alone
bacteria = settings: in combination with amoxycillin, ampicillin, piperacillin, respectively; cited from earlier work
[2] = system: class C cephalosporinases; settings: chromosomally encoded inducible cephalosporinases; cited from earlier work

Structure (SMILES)	IC50 [1]	enhancement of effectiveness of conventional antibiotics (bacteria)	protection of antibiotics from class C cephalosporinases [2]	also measured
CC(=O)OCC1=C(C(=O)O)N2C(=O)[C@@H](NC(=O)Cc3cccs3)[C@H]2SC1 [Cephalothin]				MIC (E. aerogenes S95): > 256 µg/mL; MIC (C. freundii S40): 256 µg/mL
C=CCOC(=O)C(C(=O)N[C@@H]1C(=O)N2[C@@H]1SC(C)(C)[C@@H]2C(=O)O)=C1SC=CS1 [IIa, 6β-[(Allyloxycarbonyl)(1,3-dithiolen-2-ylidene)acetamido]-2,2-dimethylpenam-3-carboxylic acid]	7 nM			
COC(=O)C(C(=O)N[C@@H]1C(=O)N2[C@@H]1SC(C)(C)[C@@H]2C(=O)O)=C1SCCS1 [Ia, 6β-[(1,3-Dithiolan-2-ylidene)(methoxycarbonyl)acetamido]-2,2-dimethylpenam-3-carboxylic acid]	0.61 nM			synergistic activity against Gram-negative bacteria (Gram-negative bacteria): synergistic activity; antibacterial activity of the inhibitors themselves (Gram-negative bacteria): no antibacterial activity at the concentration up to 128 mg/ml
CCOC(=O)C(C(=O)N[C@@H]1C(=O)N2[C@@H]1SC(C)(C)[C@@H]2C(=O)O)=C1SCCS1 [Ib, 6β-[(1,3-Dithiolan-2-ylidene)(ethoxycarbonyl)acetamido]-2,2-dimethylpenam-3-carboxylic acid]	0.49 nM			
CC1(C)S[C@@H]2[C@H](NC(=O)C(C(=O)O)=C3SCCS3)C(=O)N2[C@H]1C(=O)O [Ic, Disodium 6β-[carboxylato(1,3-dithiolan-2-ylidene)acetamido]-2,2-dimethylpenam-3-carboxylate]	9.1 nM			synergistic activity against Gram-negative bacteria (Gram-negative bacteria): synergistic activity; antibacterial activity of the inhibitors themselves (Gram-negative bacteria): no antibacterial activity at the concentration up to 128 mg/ml
CCOC(=O)C(C(=O)N[C@@H]1C(=O)N2[C@@H](C(=O)O)C(C)(C)S(=O)(=O)[C@H]12)=C1SCCS1 [Id, 6β-[(1,3-Dithiolan-2-ylidene)(ethoxycarbonyl)acetamido]-2,2-dimethylpenam-3-carboxylic acid 1,1-dioxide]	150 nM			
O=C(O)[C@H]1/C(=C/CO)O[C@@H]2CC(=O)N21 [clavulanic acid]		proved to enhance the effectiveness of conventional antibiotics against many bacteria	failed to protect the antibiotics	
CC1(C)[C@H](C(=O)O)N2C(=O)C[C@H]2S1(=O)=O [sulbactam]		proved to enhance the effectiveness of conventional antibiotics against many bacteria	failed to protect the antibiotics	
C[C@]1(Cn2ccnn2)[C@H](C(=O)O)N2C(=O)C[C@H]2S1(=O)=O [tazobactam]		proved to enhance the effectiveness of conventional antibiotics against many bacteria	failed to protect the antibiotics	
